# Reference: patent US10206394B2, “Herbicidal compounds” (Syngenta Participations AG, priority 2014, dated 2019)
# Like-named read-outs stand apart in the source and are kept apart here.
# How the values were obtained:
# Assay in all cases: Glasshouse assay for herbicidal activity (pre- and post-emergence), percentage phytotoxicity
# Assay type in all cases: in vivo
# [1] = test system: Alopecurus myosuroides (ALOMY); conditions: Alopecurus myosuroides
# In short: (§1)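 Herbicide was applied to potted plants sown in standard soil, one day after sowing for PRE and after about 12 days for POST. Visual percentage damage ratings followed at 15 DAA (POST) and 20 DAA (PRE).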
# [2] = test system: Avena fatua (AVEFA); conditions: Avena fatua
# In short: as §1
# [3] = test system: Echinochloa crus-galli (ECHCG); conditions: Echinochloa crus-galli
# In short: as §1
# [4] = test system: Lolium perenne (LOLPE); conditions: Lolium perenne
# In short: as §1
# [5] = post-emergence, 360 h, POST-emergence, rate 250 g/ha, visual score 15 DAA (100%=total damage, 0%=no damage), read-out: Post-emergence herbicidal activity (percentage phytotoxicity) ALOMY POST
# [6] = pre-emergence, 480 h, PRE-emergence, rate 250 g/ha, visual score 20 DAA (100%=total damage, 0%=no damage), read-out: Pre-emergence herbicidal activity (percentage phytotoxicity) ALOMY PRE
# [7] = post-emergence, 360 h, POST-emergence, rate 250 g/ha, visual score 15 DAA (100%=total damage, 0%=no damage), read-out: Post-emergence herbicidal activity (percentage phytotoxicity) AVEFA POST
# [8] = pre-emergence, 480 h, PRE-emergence, rate 250 g/ha, visual score 20 DAA (100%=total damage, 0%=no damage), read-out: Pre-emergence herbicidal activity (percentage phytotoxicity) AVEFA PRE
# [9] = post-emergence, 360 h, POST-emergence, rate 250 g/ha, visual score 15 DAA (100%=total damage, 0%=no damage), read-out: Post-emergence herbicidal activity (percentage phytotoxicity) ECHCG POST
# [10] = pre-emergence, 480 h, PRE-emergence, rate 250 g/ha, visual score 20 DAA (100%=total damage, 0%=no damage), read-out: Pre-emergence herbicidal activity (percentage phytotoxicity) ECHCG PRE
# [11] = post-emergence, 360 h, POST-emergence, rate 250 g/ha, visual score 15 DAA (100%=total damage, 0%=no damage), read-out: Post-emergence herbicidal activity (percentage phytotoxicity) LOLPE POST
# [12] = pre-emergence, 480 h, PRE-emergence, rate 250 g/ha, visual score 20 DAA (100%=total damage, 0%=no damage), read-out: Pre-emergence herbicidal activity (percentage phytotoxicity) LOLPE PRE
# [13] = post-emergence, 360 h, 250 g/ha, post-emergence, 15 DAA, visual assessment (100%=total damage, 0%=no damage), read-out: Post-emergence herbicidal activity (percentage phytotoxicity) ALOMY POST
# [14] = pre-emergence, 480 h, 250 g/ha, pre-emergence, 20 DAA, visual assessment (100%=total damage, 0%=no damage), read-out: Pre-emergence herbicidal activity (percentage phytotoxicity) ALOMY PRE
# [15] = post-emergence, 360 h, 250 g/ha, post-emergence, 15 DAA, visual assessment (100%=total damage, 0%=no damage), read-out: Post-emergence herbicidal activity (percentage phytotoxicity) AVEFA POST
# [16] = pre-emergence, 480 h, 250 g/ha, pre-emergence, 20 DAA, visual assessment (100%=total damage, 0%=no damage), read-out: Pre-emergence herbicidal activity (percentage phytotoxicity) AVEFA PRE
# [17] = post-emergence, 360 h, 250 g/ha, post-emergence, 15 DAA, visual assessment (100%=total damage, 0%=no damage), read-out: Post-emergence herbicidal activity (percentage phytotoxicity) ECHCG POST
# [18] = pre-emergence, 480 h, 250 g/ha, pre-emergence, 20 DAA, visual assessment (100%=total damage, 0%=no damage), read-out: Pre-emergence herbicidal activity (percentage phytotoxicity) ECHCG PRE
# [19] = post-emergence, 360 h, 250 g/ha, post-emergence, 15 DAA, visual assessment (100%=total damage, 0%=no damage), read-out: Post-emergence herbicidal activity (percentage phytotoxicity) LOLPE POST
# [20] = pre-emergence, 480 h, 250 g/ha, pre-emergence, 20 DAA, visual assessment (100%=total damage, 0%=no damage), read-out: Pre-emergence herbicidal activity (percentage phytotoxicity) LOLPE PRE
SMILES,"pest or weed control at 250 g/ha [1, 5] [%]","pest or weed control at 250 g/ha [1, 6] [%]","pest or weed control at 250 g/ha [2, 7] [%]","pest or weed control at 250 g/ha [2, 8] [%]","pest or weed control at 250 g/ha [3, 9] [%]","pest or weed control at 250 g/ha [3, 10] [%]","pest or weed control at 250 g/ha [4, 11] [%]","pest or weed control at 250 g/ha [4, 12] [%]","pest or weed control at 250 g/ha [1, 13] [%]","pest or weed control at 250 g/ha [1, 14] [%]","pest or weed control at 250 g/ha [2, 15] [%]","pest or weed control at 250 g/ha [2, 16] [%]","pest or weed control at 250 g/ha [3, 17] [%]","pest or weed control at 250 g/ha [3, 18] [%]","pest or weed control at 250 g/ha [4, 19] [%]","pest or weed control at 250 g/ha [4, 20] [%]",other results
Cc1cc(C)c(C2C(=O)CC(CC(=O)N3CCC(C)CC3)C2=O)c(C)c1 (stereo not drawn) [Compound A172],–,–,–,–,–,–,–,–,–,–,–,–,–,–,–,–,"pest or weed control at 250 g/ha ([1]; post-emergence, 360 h, post-emergence, 250 g/ha, 15 DAA, visual score (100%=total damage; 0%=no damage), read-out: ALOMY POST herbicidal activity (percentage phytotoxicity)): 80%; pest or weed control at 250 g/ha ([1]; pre-emergence, 480 h, pre-emergence, 250 g/ha, 20 DAA, visual score (100%=total damage; 0%=no damage), read-out: ALOMY PRE herbicidal activity (percentage phytotoxicity)): 80%; pest or weed control at 250 g/ha ([2]; post-emergence, 360 h, post-emergence, 250 g/ha, 15 DAA, visual score (100%=total damage; 0%=no damage), read-out: AVEFA POST herbicidal activity (percentage phytotoxicity)): 70%; pest or weed control at 250 g/ha ([2]; pre-emergence, 480 h, pre-emergence, 250 g/ha, 20 DAA, visual score (100%=total damage; 0%=no damage), read-out: AVEFA PRE herbicidal activity (percentage phytotoxicity)): 40%; pest or weed control at 250 g/ha ([3]; post-emergence, 360 h, post-emergence, 250 g/ha, 15 DAA, visual score (100%=total damage; 0%=no damage), read-out: ECHCG POST herbicidal activity (percentage phytotoxicity)): 70%; pest or weed control at 250 g/ha ([3]; pre-emergence, 480 h, pre-emergence, 250 g/ha, 20 DAA, visual score (100%=total damage; 0%=no damage), read-out: ECHCG PRE herbicidal activity (percentage phytotoxicity)): 80%; pest or weed control at 250 g/ha ([4]; post-emergence, 360 h, post-emergence, 250 g/ha, 15 DAA, visual score (100%=total damage; 0%=no damage), read-out: LOLPE POST herbicidal activity (percentage phytotoxicity)): 60%; pest or weed control at 250 g/ha ([4]; pre-emergence, 480 h, pre-emergence, 250 g/ha, 20 DAA, visual score (100%=total damage; 0%=no damage), read-out: LOLPE PRE herbicidal activity (percentage phytotoxicity)): 90%"
C#CCN(C)C(=O)CC1CC(=O)C(c2c(C)cc(/C=C/C)cc2C)C1=O (stereo not drawn) [Compound B250],100,50,90,50,100,90,100,80,–,–,–,–,–,–,–,–,–
CCCCNC(=O)CC1CC(=O)C(c2c(C)cc(-c3ncc(F)cn3)cc2C)C1=O (stereo not drawn) [Compound B111],–,–,–,–,–,–,–,–,100,70,100,90,100,100,100,100,–
Cc1cc(C)c(C2C(=O)CC(CC(=O)NCC(CF)CF)C2=O)c(C)c1 (stereo not drawn) [Compound B76],–,–,–,–,–,–,–,–,80,90,80,70,80,90,80,90,–
Cc1cc(C)c(C2C(=O)CC(CC(=O)NC(C)(C)C#N)C2=O)c(C)c1 (stereo not drawn) [Compound B43],–,–,–,–,–,–,–,–,80,70,80,30,60,40,80,60,–
Cc1cc(-c2ccc(F)cn2)cc(C)c1C1C(=O)CC(CC(=O)NCc2cccc(F)c2)C1=O (stereo not drawn) [Compound B383],–,–,–,–,–,–,–,–,–,–,–,–,–,–,–,–,"pest or weed control at 250 g/ha ([1]; post-emergence, 360 h, Rate 250 g/ha, post-emergence, visual assessment 15 DAA, 100%=total damage, 0%=no damage, read-out: Post-emergence herbicidal activity (percentage phytotoxicity) ALOMY POST): 100%; pest or weed control at 250 g/ha ([1]; pre-emergence, 480 h, Rate 250 g/ha, pre-emergence, visual assessment 20 DAA, 100%=total damage, 0%=no damage, read-out: Pre-emergence herbicidal activity (percentage phytotoxicity) ALOMY PRE): 90%; pest or weed control at 250 g/ha ([2]; post-emergence, 360 h, Rate 250 g/ha, post-emergence, visual assessment 15 DAA, 100%=total damage, 0%=no damage, read-out: Post-emergence herbicidal activity (percentage phytotoxicity) AVEFA POST): 100%; pest or weed control at 250 g/ha ([2]; pre-emergence, 480 h, Rate 250 g/ha, pre-emergence, visual assessment 20 DAA, 100%=total damage, 0%=no damage, read-out: Pre-emergence herbicidal activity (percentage phytotoxicity) AVEFA PRE): 90%; pest or weed control at 250 g/ha ([3]; post-emergence, 360 h, Rate 250 g/ha, post-emergence, visual assessment 15 DAA, 100%=total damage, 0%=no damage, read-out: Post-emergence herbicidal activity (percentage phytotoxicity) ECHCG POST): 90%; pest or weed control at 250 g/ha ([3]; pre-emergence, 480 h, Rate 250 g/ha, pre-emergence, visual assessment 20 DAA, 100%=total damage, 0%=no damage, read-out: Pre-emergence herbicidal activity (percentage phytotoxicity) ECHCG PRE): 100%; pest or weed control at 250 g/ha ([4]; post-emergence, 360 h, Rate 250 g/ha, post-emergence, visual assessment 15 DAA, 100%=total damage, 0%=no damage, read-out: Post-emergence herbicidal activity (percentage phytotoxicity) LOLPE POST): 90%; pest or weed control at 250 g/ha ([4]; pre-emergence, 480 h, Rate 250 g/ha, pre-emergence, visual assessment 20 DAA, 100%=total damage, 0%=no damage, read-out: Pre-emergence herbicidal activity (percentage phytotoxicity) LOLPE PRE): 100%"
COCC(C)(C)NC(=O)CC1CC(=O)C(c2c(C)cc(-c3ncc(F)cn3)cc2C)C1=O (stereo not drawn) [Compound B327],100,100,100,80,100,100,90,100,–,–,–,–,–,–,–,–,–
CC#Cc1cc(C)c(C2C(=O)CC(CC(=O)N3CCOCC3)C2=O)c(C)c1 (stereo not drawn) [Compound B155],–,–,–,–,–,–,–,–,100,90,100,100,100,100,100,100,–
Cc1cc(-c2ncc(C#N)cn2)cc(C)c1C1C(=O)CC(CC(=O)NC(C)(C)C)C1=O (stereo not drawn) [Compound B270],100,100,100,90,100,100,90,100,–,–,–,–,–,–,–,–,–
